The results in this text go back to ChEMBL document CHEMBL4033759, “Photoaffinity Labeling of the Human A2A Adenosine Receptor and Cross-link Position Analysis by Mass Spectrometry” (ACS Med Chem Lett, 2017).

Assay [1] has as its target T1, Adenosine receptor A2a (Homo sapiens, UniProt P29274). The experiment in a line: Binding affinity to C-terminal 10xHis and 1D4-tagged C-terminal-truncated human A2A adenosine receptor (1 to 316 residues) expressed in Pichia pastoris expression system at 4 nM after 1 hr by fluorescence polarization assay. To be noted: read-out: Kd(app).
Assay [2] has as its target T1, Adenosine receptor A2a. The experiment in a line: Binding affinity to C-terminal 10xHis and 1D4-tagged C-terminal-truncated human A2A adenosine receptor (1 to 316 residues) expressed in Pichia pastoris expression system at 1 nM after 1 hr by fluorescence polarization assay. The conditions noted are these: read-out: Kd(app). (Fluorescence polarisation rises when a labelled molecule tumbles more slowly, as on binding a larger partner.)

Assay [3] has as its target T1, Adenosine receptor A2a. Nature of the assay: Binding affinity to human A2A adenosine receptor expressed in HEK293 cells after 1 hr by fluorescence polarization assay. In kind it is cell-based.
The target in assay [4] is T1, Adenosine receptor A2a. Nature of the assay: Binding affinity to C-terminal 10xHis and 1D4-tagged C-terminal-truncated human A2A adenosine receptor (1 to 316 residues) expressed in Pichia pastoris expression system at 2 nM after 1 hr by fluorescence polarization assay. The conditions noted are these: read-out: Kd(app).
The target of assay [5] is T1, Adenosine receptor A2a. Nature of the assay: Binding affinity to C-terminal 10xHis and 1D4-tagged C-terminal-truncated human A2A adenosine receptor (1 to 316 residues) expressed in Pichia pastoris expression system at 8 nM after 1 hr by fluorescence polarization assay. To be noted: read-out: Kd(app).
Assay [6] has as its target T1, Adenosine receptor A2a. Nature of the assay: Displacement of MRS5346 from C-terminal 10xHis and 1D4-tagged C-terminal-truncated human A2A adenosine receptor (1 to 316 residues) expressed in Pichia pastoris expression system after 1 hr by fluorescence polarization assay.

T1 sequence (P29274 whole entry, the tested form may be a part): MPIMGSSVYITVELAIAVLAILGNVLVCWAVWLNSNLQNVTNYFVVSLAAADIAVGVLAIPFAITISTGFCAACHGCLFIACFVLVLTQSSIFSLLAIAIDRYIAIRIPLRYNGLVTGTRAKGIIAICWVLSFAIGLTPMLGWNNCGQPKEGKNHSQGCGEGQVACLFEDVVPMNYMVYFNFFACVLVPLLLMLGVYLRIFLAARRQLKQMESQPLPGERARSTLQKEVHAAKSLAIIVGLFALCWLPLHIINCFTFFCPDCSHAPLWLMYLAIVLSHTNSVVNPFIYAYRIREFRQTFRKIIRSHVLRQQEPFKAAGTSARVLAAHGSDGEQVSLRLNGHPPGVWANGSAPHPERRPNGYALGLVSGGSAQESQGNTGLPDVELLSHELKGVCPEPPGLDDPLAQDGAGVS

As for `N=c1ccc2c(-c3ccc(C(=O)NCCNC(=O)COc4ccc(CCCn5ncc6c5nc(N)n5nc(-c7ccco7)nc65)cc4)cc3C(=O)O)c3ccc(N)c(S(=O)(=O)O)c3oc-2c1S(=O)(=O)O`, the Kd at Adenosine receptor A2a [1] is 42.4 nM; at Adenosine receptor A2a [2], 29 nM; on Adenosine receptor A2a [3], 16.5 nM; on Adenosine receptor A2a [4] it was 30.8 nM; at Adenosine receptor A2a [5] it was 49.5 nM.
Usually Ki stands for a measure of affinity in units of concentration, obtained from inhibition or displacement. Consider `Nc1nc2nn(Cc3ccc(C4(C(F)(F)F)N=N4)cc3)cc2c2nc(-c3ccco3)nn12`, for which the affinity on Adenosine receptor A2a [6] corresponds to a Ki of 39.7 nM.
On the same count and under the same terms, next, `Nc1nc2c(cnn2Cc2ccc(C3(C(F)(F)F)N=N3)cc2)c2nc(-c3ccco3)nn12`: 1520 nM.
